The numbers were not newly measured in patent publication US20050124660A1, “Novel medical uses of compounds showing CB1-antagonistic activity and combination treatment involving said compounds” (priority 2003, published 2005), which cites them from elsewhere.

Like-named read-outs stand apart in the source and are kept apart here.

For data set [1] the following is noted: in vivo; cited from earlier work.
The conditions of data set [2]: cited from earlier work.
The conditions of data set [3]: cited from earlier work. This is another data set of the same source.
Where [4] appears, read: treatment groups 60, 120 and 240 mg.

On to `CCCCCCCCCCCCCCCCOc1nc2ccc(C)cc2c(=O)o1` [ATL-962, 2-hexadecyloxy-6-methyl-4H-3,1-benzoxazin-4-one], for which the preclinical toxicity result in data set [1] was “no toxicity was observed”. The “weight compared to placebo” value in data set [2] (60, 120 and 240 mg, obese patients) is reported as “significant reduction in weight”. Moreover, the safety and tolerability result in data set [2] (phase IIb, obese patients) is “safe and generally well tolerated”. In data set [2] (setting [4]), the HDL-cholesterol levels entry is listed as “no difference”, the LDL-cholesterol result was “decreased” and the Total cholesterol result is listed as “decreased”. Moreover, in data set [3] (50 mg to 300 mg), the “subjects with a 3-fold or greater increase in fat excretion compared to placebo” value is recorded as 55% and the “subjects with a 7-fold or greater increase in fat excretion compared to placebo” value is 27%. The safety and tolerability entry in data set [3] (phase Ib, healthy male volunteers) is “safe and well tolerated”.
